What follows are compounds tested against T1, BRD4 BD2 (Homo sapiens, UniProt O60885, Y97A) (assay: BRD4 BD2 TR-FRET competition assay). Conditions: single mutant tandem BRD4, read-out: pIC50 in the BRD4 BD2 assay (converted).
T1 construct: BRD4 (1-477) (Y97A) and (Y390A); made in house; host or cells: E. coli (pET15b vector)
Format: binding
Method: Bromodomain binding was assessed utilising a time resolved fluorescent resonance energy transfer (TR-FRET) competition assay. To enable this approach a known, high affinity, pan-BET interacting small molecule was labelled with Alexa Fluor® 647, which is a far-red-fluorescent dye (Reference Compound X). Reference Compound X acts as a reporter of bromodomain binding and is the acceptor fluorophore component of the TR-FRET pair. Europium chelate, conjugated to an anti-6*His antibody, was utilised as the donor fluorophore in the TR-FRET pair. […] A TR-FRET signal is generated when the donor and acceptor fluorophores are in close proximity, between 20-80 Å, which is enabled in this assay by binding of Reference Compound X to the bromodomain protein.
In order to generate a TR-FRET signal, donor fluorophore is excited by a laser at λ337 nm, which subsequently leads to emission at λ618 nm. If the acceptor fluorophore is in close proximity then energy transfer can occur, which leads to emission of Alexa Fluor® 647 at λ665 nm. In the presence of competitor compound, Reference Compound X can be displaced from binding to the bromodomain. If displacement occurs, the acceptor fluorophore is no longer in proximity to the donor fluorophore, which prevents fluorescent energy transfer and, subsequently, a loss of Alexa Fluor® 647 emission at λ665 nm.
The competition of the compounds of formula (I) with Reference Compound X for binding to the BET family (BRD2, BRD3, BRD4 and BRDT) was assessed using protein truncates spanning both bromodomain 1 (BD1) and bromodomain 2 (BD2). In order to monitor differential binding to either BD1 or BD2, single residue mutations of key tyrosines to alanine were made in the acetyl lysine binding pockets. To validate this approach, a double residue mutant tandem domain protein was produced for each of the BET family members. Utilising a Fluorescence Polarisation approach, binding affinities for each of the single and double mutants for Reference Compound X were determined.
Final purification was completed by Superdex 200 prep grade size exclusion column. Purified protein was stored at −80° C. in 20 mM HEPES pH 7.5 and 100 mM NaCl.
All assay components were dissolved in an assay buffer composing of 50 mM HEPES pH7.4, 50 mM NaCl, 5% Glycerol, 1 mM DTT and 1 mM CHAPS. Reference Compound X was diluted, in assay buffer containing 20 nM single mutant, tandem bromodomain protein, to a concentration equivalent to 2*Kd for this bromodomain. The solution containing bromodomain and Reference Compound X was added to dose response dilutions of test compound or DMSO vehicle (a maximum of 0.5% DMSO is used in this assay) in Greiner 384 well black low volume microtitre plates and subsequently incubated for 30 minutes at room temperature. An equal volume of 3 nM of anti-6*His Europium chelate was added to all wells, followed by a further 30 minute incubation at room temperature. TR-FRET was detected using a Perkin Elmer Multimode plate reader, by exciting the donor fluorophore at λ337 nm and subsequently, after a delay of 50 μsecs, measuring emission of the donor and acceptor fluorophores at λ615 nm and λ665 nm, respectively. In order to control these assays, 16 replicates each of uninhibited (DMSO vehicle) and inhibited (10*IC50 concentrations of Example 11 of WO 2011/054846A1) TR-FRET assays were included on every microtitre plate.
cA four parameter curve fit of the following form was then applied: y=a+((b−a)/(1+(10^x/10^c)^d)
Where ‘a’ is the minimum, ‘b’ is the Hill slope, ‘c’ is the pIC50 and ‘d’ is the maximum.
In the case of `CNC(=O)CCNC(=O)c1cc(C(=O)NC)c(=O)n(Cc2ccccc2)c1` [Example 35, 1-Benzyl-N^3-methyl-N^5-(3-(methylamino)-3-oxopropyl)-2-oxo-1,2-dihydropyridine-3,5-dicarboxamide], the IC50 is reported as 100 to 1000 nM.
`CNC(=O)c1cc(C(=O)NCCCC#N)cn(Cc2ccccc2)c1=O` [Example 36, 1-Benzyl-N^5-(3-cyanopropyl)-N^3-methyl-2-oxo-1,2-dihydropyridine-3,5-dicarboxamide] was tested, and the IC50 was 100 to 1000 nM.
Work on `CNC(=O)c1cc(C(=O)NCCC#N)cn(Cc2ccccc2)c1=O` [Example 37, 1-Benzyl-N^5-(2-cyanoethyl)-N^3-methyl-2-oxo-1,2-dihydropyridine-3,5-dicarboxamide] yielded an IC50 of 100 to 1000 nM.
Compound `CNC(=O)c1cc(C(=O)NCCCN)cn(Cc2ccccc2)c1=O` [Example 38, N^5-(3-Aminopropyl)-1-benzyl-N^3-methyl-2-oxo-1,2-dihydropyridine-3,5-dicarboxamide] has an IC50 of 100 to 1000 nM.
Compound `CNC(=O)c1cc(C(=O)NCCC(C)O)cn(Cc2ccccc2)c1=O` (stereo not shown) [Example 39, 1-Benzyl-N^5-(3-hydroxybutyl)-N^3-methyl-2-oxo-1,2-dihydropyridine-3,5-dicarboxamide] has an IC50 of 100 to 1000 nM.
`CNC(=O)c1cc(C(=O)NCCc2cccnc2)cn(Cc2ccccc2)c1=O` [Example 40, 1-Benzyl-N^3-methyl-2 oxo-N^5-(2-(pyridin-3-yl)ethyl)-1,2-dihydropyridine-3,5-dicarboxamide] showed an IC50 of 100 to 1000 nM.
With `CNC(=O)c1cc(C(=O)NCCCOC)cn(Cc2ccccc2)c1=O` [Example 42, 1-Benzyl-N^5-(3-methoxypropyl)-N^3-methyl-2-oxo-1,2-dihydropyridine-3,5-dicarboxamide] the IC50 was 100 to 1000 nM.
`CNC(=O)c1cc(C(=O)NC)c(=O)n(Cc2cccc(C#N)c2)c1` [Example 43, 1-(3-Cyanobenzyl)-N^3,N^5-dimethyl-2-oxo-1,2-dihydropyridine-3,5-dicarboxamide] showed an IC50 of 1000 to 100000 nM.
In the case of `CNC(=O)c1cc(C(=O)NCCS(C)(=O)=O)cn(Cc2ccccc2)c1=O` [Example 45, 1-Benzyl-N^3-methyl-N^5-(2-(methylsulfonyl)ethyl)-2-oxo-1,2-dihydropyridine-3,5-dicarboxamide], the IC50 is reported as 100 to 1000 nM.
Compound `CNC(=O)c1cc(C(=O)NCCCN(C)C)cn(Cc2ccccc2)c1=O` [Example 47, 1-Benzyl-N^5-(3-(dimethylamino)propyl)-N^3-methyl-2-oxo-1,2-dihydropyridine-3,5-dicarboxamide] has an IC50 of 100 to 1000 nM.
`CNC(=O)c1cc(C(=O)NCCCS(C)(=O)=O)cn(Cc2ccccc2)c1=O` [Example 48, 1-Benzyl-N^3-methyl-N^5-(3-(methylsulfonyl)propyl)-2-oxo-1,2-dihydropyridine-3,5-dicarboxamide] gave an IC50 of 100 to 1000 nM.
`CNC(=O)c1cc(C(=O)NCCc2c[nH]cn2)cn(Cc2cccc(C)c2F)c1=O` [Example 49, N^5-(2-(1H-Imidazol-4-yl)ethyl)-1-(2-fluoro-3-methylbenzyl)-N3-methyl-2-oxo-1,2-dihydropyridine-3,5-dicarboxamide] was tested, and the IC50 was 100 to 1000 nM.
For `CNC(=O)c1cc(C(=O)NCCc2ccn[nH]2)cn(Cc2ccccc2)c1=O` [Example 50, N^5-(2-(1H-Pyrazol-5-yl)ethyl)-1-benzyl-N^3-methyl-2-oxo-1,2-dihydropyridine-3,5-dicarboxamide], the IC50 was 100 to 1000 nM.
With `CNC(=O)c1cc(C(=O)Nc2ccn(C)n2)cn(Cc2ccccc2)c1=O` [Example 51, 1-Benzyl-N^3-methyl-N^5-(1-methyl-1H-pyrazol-3-yl)-2-oxo-1,2-dihydropyridine-3,5-dicarboxamide] the IC50 was 100 to 1000 nM.
`CNC(=O)c1cc(C(=O)NCCc2cnn(C)c2)cn(Cc2ccccc2)c1=O` [Example 52, 1-Benzyl-N^3-methyl-N^5-(2-(1-methyl-1H-pyrazol-4-yl)ethyl)-2-oxo-1,2-dihydropyridine-3,5-dicarboxamide] was tested, and the IC50 was 100 to 1000 nM.
In the case of `CNC(=O)c1cc(C(=O)Nc2cnn(C)c2)cn(Cc2ccccc2)c1=O` [Example 53, 1-Benzyl-N^3-methyl-N^5-(1-methyl-1H-pyrazol-4-yl)-2-oxo-1,2-dihydropyridine-3,5-dicarboxamide], the IC50 is reported as no more than 100 nM.

Reference: patent publication US10471050B2, “2-OXO-1,2-dihydropyridine-3,5-dicarboxamide compounds as bromodomain inhibitors” (GlaxoSmithKline Intellectual Property (No. 2) Limited, priority 2015, dated 2019)
